Laboratory results reported in patent publication US20210045383A1, “ORGANIC METABOLITE COMPOSITIONS AND METHODS OF USE AS MITICIDES FOR HONEY BEES” (priority 2018, published 2021).

How the values were obtained:
[1] = test system: Varroa destructor; assay: Test hives treated with miticide treatment strips; mite levels by sugar roll method and sticky board mite drops; conditions: for mite loads once treatment resumed: after skipped mid-summer treatment (mite counts above 3 per 100 bees in September); for mites loads in the treated hives: single treatments on a three-month schedule
[2] = test system: honey bees; conditions: applied using the Dribble Method; cited from earlier work

Row | SMILES | mite loads once treatment resumed [1] | mites loads in the treated hives [1] | bee mortality [2]
1 | N[C@@H](CC(=O)O)C(=O)O [aspartic acid] | reduced mite loads to an acceptable level | zero | –
2 | N[C@@H](CCC(=O)O)C(=O)O [glutamic acid] | reduced mite loads to an acceptable level | zero | –
3 | O=C(O)C(=O)O [oxalic acid] | – | – | Increased bee mortality
